Article PMC10778198, “First-in-Human Dose-Escalation Study of the Novel Oral Depsipeptide Class I-Targeting HDAC Inhibitor Bocodepsin (OKI-179) in Patients with Advanced Solid Tumors” (Cancers, 2023)
Several values for one entry are separate records, joined by “and”; a condition that tells them apart may be missing. Equal entries are not always repeated.

Experiments:
advanced solid tumors = assay: antitumor activity by RECIST 1.1; type: in vivo, human
Source text: Patients were continuously evaluated for adverse events throughout the study using the Common Terminology Criteria of Adverse Events (CTCAE v. 5). The patients underwent a clinical history and physical examination, an ECOG PS, a complete blood count (CBCs), chemistry, coagulation studies, urinalysis, a serum pregnancy test (as applicable), a triplicate ECG, an ophthalmology examination, and baseline tumor assessment at screening. During cycle 1, weekly history and physical examination, CBC, chemistry, coagulation parameters, urinalysis, and triplicate ECGs were performed; in subsequent cycles, weekly labs were limited to a CBC. Repeat ophthalmology examinations were performed at cycle 3, day 1, and at the end of treatment. Repeat tumor assessment was performed every 2 cycles (6 weeks) in accordance with RECIST 1.1. Descriptive statistics were used for baseline characteristics, safety assessments, pharmacokinetic variables, exploratory assessments, and efficacy analysis, including the duration of response and time to progression. Tables were used to summarize the data across the cohort of patients and various dosing groups. Geometric means were used to calculate plasma concentration-time profiles. Fold changes from baseline were used to calculate acetylation.

[1] = tested on: murine (syngeneic) and human cancer cell line xenograft models; design: method as in PMID 34965958, PMID 31235619; conditions: single agent; colorectal cancer, triple-negative breast cancer, diffuse large B-cell lymphoma models; cited from earlier work
[2] = tested on: metastatic NRAS-mutated melanoma; design: method as in earlier work; conditions: combination with binimetinib, phase 2 data, previously treated with immunotherapy; cited from earlier work

For `CC(C)[C@H](N)C(=O)SCC/C=C/[C@@H]1CC(=O)NCc2nc(cs2)C(=O)NC(C)(C)C(=O)N[C@@H](C(C)C)C(=O)O1` [OKI-179, Bocodepsin], the “partial or complete response” value (advanced solid tumors; RECIST 1.1) was “No partial or complete response”, the “stable disease as the best response” value (advanced solid tumors; heavily pretreated patient population) was 39% and the “patients with stable disease for > 5 months” value (advanced solid tumors; in vivo) was “Six”. For the same compound, the “time in the study with stable disease” value (advanced solid tumors; two patients with platinum-resistant serous ovarian cancer, one value each) was 7.5 months and 14.7 months, the antitumor activity [1] was “significant antitumor activity” and the “overall response rate (ORR)” value [2] was 38%.
